Experimental data from paper PMC10794144, “A novel antibiotic class targeting the lipopolysaccharide transporter” (Nature, 2024).
Converted amounts (≈) assume the structure as drawn. Like-named read-outs stand apart in the source and are kept apart here.

Test system: A. baumannii
Experiment: MIC, broth microdilution in CAMHB supplemented with human serum, read at 100% growth inhibition
Assay type: cell-based, Acinetobacter baumannii
Conditions: Acinetobacter baumannii, 20% HS, read-out: MIC
Method: MIC determinations were performed using the broth microdilution method and in line with CLSI guidelines M07 and M100 (refs. [37],[38]). Bacterial inocula were prepared by diluting a 0.5 McFarland suspension in CAMHB or lysogeny broth (LB) specifically for A. baylyi isolates. […] MIC values of all of the tested antibiotics were read as the lowest compound concentration inhibiting bacterial growth by naked eye or beyond which the OD600 ceased to decrease.

Work on `CN1C(=O)[C@H](CCCCN)NC(=O)[C@H](CCCN)NCc2cccnc2Sc2cccc(-c3ccc(C(=O)O)cc3)c2CNC(=O)[C@@H]1Cc1c[nH]c2ccccc12` [zosurabalpin] yielded an MIC (isolate 1093170) of 0.25 µg/mL (≈ 0.316 µM), an MIC (isolate 1098735) of 1 µg/mL (≈ 1.26 µM) and an MIC (isolate 1104059) of 1 µg/mL (≈ 1.26 µM). For the same compound, the MIC (isolate 1104061) was 0.25 µg/mL (≈ 0.316 µM), the MIC (isolate 1104062) was 0.25 µg/mL (≈ 0.316 µM) and the MIC (isolate 1115481) was 0.06 µg/mL (≈ 0.0759 µM). For the same compound, the MIC (isolate 1115495) was 0.5 µg/mL (≈ 0.632 µM), the MIC (isolate 1115510) was 0.5 µg/mL (≈ 0.632 µM) and the MIC (isolate 1115514) was 0.25 µg/mL (≈ 0.316 µM). It also gave an MIC (isolate 1126813) of 0.25 µg/mL (≈ 0.316 µM), an MIC (isolate 1140100) of 0.06 µg/mL (≈ 0.0759 µM) and an MIC (isolate 1154091) of 1 µg/mL (≈ 1.26 µM). The MIC (isolate 1161864) was 0.016 µg/mL (≈ 0.0202 µM), the MIC (isolate 1171976) was 0.06 µg/mL (≈ 0.0759 µM) and the MIC (isolate 1172109) was 0.016 µg/mL (≈ 0.0202 µM). The MIC (isolate 1172126) was 0.06 µg/mL (≈ 0.0759 µM), the MIC (isolate 1630178) was 0.25 µg/mL (≈ 0.316 µM) and the MIC (isolate 1630190) was 1 µg/mL (≈ 1.26 µM). It also gave an MIC (isolate 1630410) of 0.25 µg/mL (≈ 0.316 µM), an MIC (isolate 1631625) of 0.06 µg/mL (≈ 0.0759 µM) and an MIC (isolate 1631735) of 0.5 µg/mL (≈ 0.632 µM). It also gave an MIC (isolate 1631846) of 0.125 µg/mL (≈ 0.158 µM), an MIC (isolate 1631847) of 2 µg/mL (≈ 2.53 µM) and an MIC (isolate 1631848) of 4 µg/mL (≈ 5.06 µM). For the same compound, the MIC (isolate 1631849) was 0.06 µg/mL (≈ 0.0759 µM), the MIC (isolate 1631949) was 0.5 µg/mL (≈ 0.632 µM) and the MIC (isolate 1631953) was 0.5 µg/mL (≈ 0.632 µM). For the same compound, the MIC (isolate 1631954) was 0.25 µg/mL (≈ 0.316 µM), the MIC (isolate 1631955) was 0.06 µg/mL (≈ 0.0759 µM) and the MIC (isolate 1632073) was 0.06 µg/mL (≈ 0.0759 µM). The MIC (isolate 1632166) was 0.25 µg/mL (≈ 0.316 µM), the MIC (isolate 1632273) was 0.25 µg/mL (≈ 0.316 µM) and the MIC (isolate 1633081) was 0.25 µg/mL (≈ 0.316 µM). The MIC (isolate 1633082) was 0.5 µg/mL (≈ 0.632 µM), the MIC (isolate 1633098) was 0.25 µg/mL (≈ 0.316 µM) and the MIC (isolate 1633115) was 0.25 µg/mL (≈ 0.316 µM). The MIC (isolate 1633117) was 1 µg/mL (≈ 1.26 µM), the MIC (isolate 1633121) was 0.5 µg/mL (≈ 0.632 µM) and the MIC (isolate 1633124) was 1 µg/mL (≈ 1.26 µM). For the same compound, the MIC (isolate 1633269) was 2 µg/mL (≈ 2.53 µM), the MIC (isolate 1633271) was 1 µg/mL (≈ 1.26 µM) and the MIC (isolate 1633272) was 1 µg/mL (≈ 1.26 µM). For the same compound, the MIC (isolate 1728772) was 0.25 µg/mL (≈ 0.316 µM), the MIC (isolate 1728773) was 0.5 µg/mL (≈ 0.632 µM) and the MIC (isolate 1728774) was 0.25 µg/mL (≈ 0.316 µM). The MIC (isolate 1728884) was 0.5 µg/mL (≈ 0.632 µM), the MIC (isolate 1729042) was 2 µg/mL (≈ 2.53 µM) and the MIC (isolate 1729043) was 1 µg/mL (≈ 1.26 µM). The MIC (isolate 1729044) was 1 µg/mL (≈ 1.26 µM), the MIC (isolate 1729049) was 2 µg/mL (≈ 2.53 µM) and the MIC (isolate 1729050) was 2 µg/mL (≈ 2.53 µM). It also gave an MIC (isolate 1729052) of 1 µg/mL (≈ 1.26 µM), an MIC (isolate 1729102) of 4 µg/mL (≈ 5.06 µM) and an MIC (isolate 1729123) of 0.5 µg/mL (≈ 0.632 µM). It also gave an MIC (isolate 1729351) of 0.5 µg/mL (≈ 0.632 µM) and an MIC (isolate 1729352) of 0.25 µg/mL (≈ 0.316 µM).
